This note sets out measurements from US20020150912A1, “Reporter system for cell surface receptor-ligand binding” (priority 2000, published 2002).

Assay [1] addresses T1, chemokine receptor, CCR5 (Homo sapiens, UniProt P51681). Kind of assay: cell-based or functional assay.
Assay [2] has as its system endogenous ATP receptors present in the HeLa cells. Description: HF1 reporter cell luciferase assay, endogenous ATP receptors. To be noted: stimulation for 16 hours, read-out: EC50, TRE-mediated luciferase response. The format is cell-based. As to the method: FIG. 5 illustrates the response of endogenous ATP receptors present in the HeLa cells used to establish a reporter cell line, HF1, of the invention.
A. Dose-response curve following stimulation with varying concentrations of ATP for 16 hours. […] Error bars indicate± SEM.
(§1) The medium was removed and cell lysis buffer added. Plates were stored at −70° C. until further analysis.

Assay [3] deals with reporter plasmids in HeLa cells. Description: HeLa cells transiently transfected with reporter plasmids, luciferase amplification. The assay is classed as cell-based. To be noted: 100 nM PMA, 10^−6 M thapsigargin where added, 10 h, ratio of RLU, stimulated to non-stimulated cells. As for the experimental part:
(§2) Cells electroporated for transient expression were stimulated with 100 nM PMA for 10 hours. Amplification was calculated as the ratio between the relative luminescence units (RLU) of stimulated and non-stimulated cells. Results are expressed as mean values+SEM of three to four independent transfection experiments each performed in triplicate; n.d.=not determined.
as §1
(§3) The prototypic reporter plasmids (pcFUS2; pcFUS2-6xSTAT/NFκB; pcFUS3 and pGL3-12xSTAT/NFκB) were used to transfect HeLa cells transiently by electroporation. Cells were stimulated 24 h post transfection with 100 nM PMA or 100 nM PMA and 10^−6 M thapsigargin or treated as controls. After 10 h of incubation, the cells were lysed and assayed.

The subject of the next assay is HeLa cells. Kind of assay: Luciferase assay of HeLa cells transiently transfected with prototypic reporter plasmids. The format is cell-based. The conditions noted are these: Homo sapiens, 10 h, 100 nM PMA, or 100 nM PMA and 10^−6 M thapsigargin, read-out: Amplification value. As for the experimental part:
as §2, §1, §3

Assay [4] deals with T1, chemokine receptor, CCR5. Kind of assay: HF1pCCR5 reporter cell luciferase assay. The assay is classed as cell-based. Further details: All receptor ORFs were inserted into the pIRESpuro vector (Clontech) by standard techniques; expressed in transfected cells; host or cells: HeLa-derived HF1 reporter cells (HF1pCCR5), pIRESpuro vector. The conditions noted are these: CCR5 stably expressed in HF1 reporter cells; read-out: EC50 (agonist concentration giving half maximum effect).

The mark [5] stands for this setting: plasmid pcFUS3 (6 × STAT/NFκB; 9 × AP-1).

Where two headings read alike, the source gives them in different places.

T1 sequence (P51681 whole entry): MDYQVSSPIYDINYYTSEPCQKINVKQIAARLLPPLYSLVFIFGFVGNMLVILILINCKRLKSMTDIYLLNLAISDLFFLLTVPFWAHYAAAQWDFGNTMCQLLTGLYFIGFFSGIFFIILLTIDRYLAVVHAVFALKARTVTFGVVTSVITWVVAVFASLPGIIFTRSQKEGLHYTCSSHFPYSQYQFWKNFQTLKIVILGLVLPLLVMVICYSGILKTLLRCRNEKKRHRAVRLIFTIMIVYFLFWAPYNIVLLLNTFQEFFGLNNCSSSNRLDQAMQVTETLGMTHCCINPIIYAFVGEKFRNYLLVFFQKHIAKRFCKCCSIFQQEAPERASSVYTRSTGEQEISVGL

Compound “RANTES (from UniProt P13501 24-91) (ligand)” had an EC50 (agonist concentration giving half maximum effect), luciferase reporter in HF1 cells stably expressing CCR5 in the assay with chemokine receptor, CCR5 [1] of 111 nM.
As for `Nc1ncnc2c1ncn2[C@@H]1O[C@H](COP(=O)(O)OP(=O)(O)OP(=O)(O)O)[C@@H](O)[C@H]1O` [ATP], the EC50 in assay [2] was determined as 107000 nM.
On to `CCCCCCCCCCCCCC(=O)O[C@@H]1[C@@H](C)[C@@]2(O)[C@@H](C=C(CO)C[C@]3(O)C(=O)C(C)=C[C@@H]23)[C@@H]2C(C)(C)[C@]12OC(C)=O` [PMA], for which the Amplification value is listed as 4.16 ± 2.00 in assay [3] (plasmid pGL3-12 × STAT/NFκB), 2.53 ± 2.00 in assay [3] (plasmid pcFUS2 (9 × AP-1)), 3.78 ± 1.44 in assay [3] (plasmid pcFUS2-6 × STAT/NFκB) and 7.37 ± 3.29 in assay [3] (setting [5]). Also, the fold induction at 0.1 µM in the assay with HeLa cells (plasmid pGL3-12 × STAT/NFκB) worked out at 4.16 ± 2; with HeLa cells (plasmid pcFUS2 (9 × AP-1)), 2.53 ± 2; with HeLa cells (plasmid pcFUS2-6 × STAT/NFκB), 3.78 ± 1.44; in the assay on HeLa cells (setting [5]), 7.37 ± 3.29.
Take “RANTES: a peptide (having the sequence RANTES), agonist of the chemokine receptor CCR5”: in the assay with chemokine receptor, CCR5 [4], the EC50 is 111 nM.
